Results taken from US6784201B2, “Benzothiepines having activity as inhibitors of ileal bile acid transport and taurocholate uptake” (G.D. Searle & Company, priority 1994, dated 2004).
Where two headings read alike, the source gives them in different places. Blank lines part the entries; values can stand above or below the compound they belong to.

Tests used:
human IBAT = molecular target: T1, human IBAT (Homo sapiens, UniProt Q12908); experiment: In vitro assay of IBAT-mediated uptake of [14C]-taurocholate (TC) in H14 cells; type: cell-based
T1 construct: expressed in transfected cells; host or cells: Baby hamster kidney (BHK) cells, clone H14
T1 sequence (Q12908 1-348): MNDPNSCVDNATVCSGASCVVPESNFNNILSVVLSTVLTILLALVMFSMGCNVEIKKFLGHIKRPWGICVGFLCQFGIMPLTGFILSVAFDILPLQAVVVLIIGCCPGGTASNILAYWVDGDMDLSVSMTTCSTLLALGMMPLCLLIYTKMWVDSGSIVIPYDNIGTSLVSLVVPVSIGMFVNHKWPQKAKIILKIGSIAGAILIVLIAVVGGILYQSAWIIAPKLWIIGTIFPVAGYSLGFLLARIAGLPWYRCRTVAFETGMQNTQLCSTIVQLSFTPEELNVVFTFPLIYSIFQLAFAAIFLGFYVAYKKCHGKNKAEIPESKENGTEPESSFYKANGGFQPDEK
Summary of the method: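 BHK cells stably expressing human IBAT (H14) were incubated 2 h at 37° C with compound and 3 μM final [14C]-taurocholate in DMEM (4.5 g/L glucose) plus 0.2% fatty acid-free BSA. After cold PBS washes, cell-associated radioactivity was measured by scintillation counting.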

H14 cells = experiment: In vitro assay of uptake of [14C]-alanine; type: cell-based, hamster; conditions: Mesocricetus auratus
Method: Baby hamster kidney cells (BHK) transfected with the cDNA of human IBAT (H14 cells) are seeded at 60,000 cells/well in 96 well Top-Count tissue culture plates for assays run within in 24 hours of seeding, 30,000 cells/well for assays run within 48 hours, and 10,000 cells/well for assays run within 72 hours.
On the day of assay, the cell monolayer is gently washed once with 100 μl assay buffer (Dulbecco's Modified Eagle's medium with 4.5 g/L glucose+0.2% (w/v) fatty acid free bovine serum albumin-(FAF)BSA). To each well 50 μl of a two-fold concentrate of test compound in assay buffer is added along with 50 μl of 6 μM [^14C]-taurocholate in assay buffer (final concentration of 3 μM [^14C]-taurocholate). The cell culture plates are incubated 2 hours at 37° C. prior to gently washing each well twice with 100 μl 4° C. Dulbecco's phosphate-buffered saline (PBS) containing 0.2% (w/v) (FAF)BSA. The wells are then gently washed once with 100 μl 4° C. PBS without (FAF)BSA. To each 200 μl of liquid scintillation counting fluid is added, the plates are heat sealed and shaken for 30 minutes at room temperature prior to measuring the amount of radioactivity in each well on a Packard Top-Count instrument.
In Vitro Assay of Compounds that Inhibit Uptake of [^14C3-Alanine
The alanine uptake assay is performed in an identical fashion to the taurocholate assay, with the exception that labeled alanine is substituted for the labeled taurocholate.

[1] = test system: Rat Ileal Uptake of [14C]-Taurocholate; experiment: In vivo assay of rat ileal uptake of [14C]-taurocholate into bile (ileal loop); conditions: for activity at 500 µM: 0.5 mM; for activity at 100 µM: read-out: % of Control Transport of TC in Rat Ileum @ 0.1 mM; for EC50: rat ileal loop, read-out: TC-uptake Ileal Loop EC(50)
Method: In Vivo Assay of Compounds that Inhibit Rat Ileal Uptake of [^14C]-Taurocholate into Bile
(See “Metabolism of 3α,7β-dihydroxy-7α-methyl-5β-cholanoic acid and 3α,7β-dihydroxy-7α-methyl-5β-cholanoic acid in hamsters” in Biochimica et Biophysica Acta 833 (1985) 196-202 by Une et al.)
Male wistar rats (200-300 g) are anesthetized with inactin @100 mg/kg. Bile ducts are cannulated with a 10″ length of PE10 tubing. The small intestine is exposed and laid out on a gauze pad. A canulae (⅛″ luer lock, tapered female adapter) is inserted at 12 cm from the junction of the small intestine and the cecum. A slit is cut at 4 cm from this same junction (utilizing a 8 cm length of ileum). 20 ml of warm Dulbecco's phosphate buffered saline, pH 6.5 (PBS) is used to flush out the intestine segment. The distal opening is cannulated with a 20 cm length of silicone tubing (0.02″ I.D.×0.037″ O.D.). The proximal cannulae is hooked up to a peristaltic pump and the intestine is washed for 20 min with warm PBS at 0.25 ml/min. Temperature of the gut segment is monitored continuously. At the start of the experiment, 2.0 ml of control sample ([^14C]-taurocholate @ 0.05 mi/ml with 5 mM cold taurocholate) is loaded into the gut segment with a 3 ml syringe and bile sample collection is begun. Control sample is infused at a rate of 0.25 ml/min for 21 min. Bile samples fractions are collected every 3 minute for the first 27 minutes of the procedure. After the 21 min of sample infusion, the ileal loop is washed out with 20 ml of warm PBS (using a 30 ml syringe), and then the loop is washed out for 21 min with warm PBS at 0.25 ml/min. A second perfusion is initiated as described above but this with test compound being administered as well (21 min administration followed by 21 min of wash out) and bile sampled every 3 min for the first 27 min. If necessary, a third perfusion is performed as above that typically contains the control sample.

[2] = test system: Rabbit Ileal brush border membranes; experiment: [3H]taurocholate uptake in rabbit brush border membrane vesicles (BBMV); type: biochemical; conditions: read-out: TC-uptake (BBMV) IC(50)
Method: [^3H]Taurocholate Uptake in Rabbit Brush Border Membrane Vesicles (BBMV)
Rabbit Ileal brush border membranes were prepared from frozen iheal mucosa by the calcium precipitation method describe by Malathi et al. (Reference: (1979) Biochimica Biophysica Acta, 554, 259). The method for measuring taurocholate was essentially as described by Kramer et al. (Reference: (1992) Biochimica Biophysica Acta, 1111, 93) except the assay volume was 200 μl instead of 100 μl.

ACAT = experiment: Acyl-CoA; cholesterol acyl transferase (ACAT), hamster liver microsomes; type: biochemical; conditions: read-out: ACAT (liver) IC(50)
Method: Acyl-CoA; Cholesterol Acyl Transferase (ACAT)
Hamster liver and rat intestinal microsomes were prepared from tissue as described previously (Reference: (1980) J. Biol. Chem. 255, 9098) and used as a source of ACAT enzyme. The assay consisted of a 2.0 ml incubation containing 24 μM Oleoyl-CoA (0.05 μCi) in a 50 mM sodium phosphate, 2 mM DTT ph 7.4 buffer containing 0.25% BSA and 200 μg of microsomal protein. The assay was initiated by the addition of oleoyl-CoA. The reaction went for 5 min at 37° C. and was terminated by the addition of 8.0 ml of chloroform/methanol (2:1). […] The chloroform phase was taken to dryness and then spotted on a silica gel 60 TLC plate and developed in hexane/ethyl ether (9:1). The amount of cholesterol ester formed was determined by measuring the amount of radioactivity incorporated into the cholesterol oleate spot on the TLC plate with a Packard instaimager.

fecal bile acid (FBA) = experiment: Rat gavage assay (fecal bile acid increase); type: in vivo
[3] = H14 cells, Table 5, read-out: IC50 uM (In vitro Taurocholate Cell Uptake)
[4] = Rattus norvegicus, read-out: % of Control Transport of TC in Rat Ileum
[5] = Table 6, read-out: TC-uptake (H14 cells) IC(50)
[6] = In Vitro Taurocholate Uptake, Table 10, read-out: Human TC IC50

Structure (SMILES): CCCC[C@]1(CC)CS(=O)(=O)c2cc(OC)ccc2[C@H](c2ccccc2)[C@@H]1O [Example 26, (3α,4α,5α) 3-Butyl-3-ethyl-4-hydroxy-8-methoxy-5-phenyl-2,3,4,5-tetrahydrobenzothiepine-1,1-dioxide]
IC50 (human IBAT; [3]): 2 µM
inhibition at 25 µM (H14 cells): 31%
activity at 100 µM ([1]; Rattus norvegicus): 87.9%

Structure (SMILES): CCCC[C@]1(CC)CS(=O)(=O)c2ccc(OC)cc2[C@@H](c2ccccc2)[C@H]1O [Example 49, (3α,4β,5β) 3-Butyl-3-ethyl-4-hydroxy-7-methoxy-5-phenyl-2,3,4,5-tetrahydrobenzothiepine-1,1-dioxide]
IC50 (human IBAT; [3]): 0.15 µM
IC50 (human IBAT; [5]): 0.1 µM
inhibition at 200 µM (H14 cells; 200 μM): 21%
activity at 100 µM ([1]; Rattus norvegicus): 21.2%
EC50 [1]: 12000 nM
IC50 (ACAT): 6000 nM

Structure (SMILES): CC1(C)CS(=O)(=O)c2ccc(N)cc2[C@@H](c2ccccc2)[C@H]1O [Example 288]
inhibition at 6.25 µM (H14 cells; @ 6.25 μM, read-out: Alanine Uptake Percent Inhibition @ μM): 10%
melting point: 185 to 186 °C

Structure (SMILES): CCCCC1(CCCC)CS(=O)(=O)c2ccc(N(C)C)cc2[C@@H](c2ccc(OCCCCCc3nn[nH]n3)cc2)[C@H]1O [Example 1420, (4R-cis)-3,3-Dibutyl-7-(dimethylamino)-2,3,4,5-tetrahydro-5-[4-[[5-(1H-tetrazol-5-yl)pentyl]oxy]phenyl]-1-benzothiepin-4-ol 1,1-dioxide]
Delta (micromoles fecal bile acid per day) (fecal bile acid (FBA); dose 2 mg/kg/day): 53.1 micromoles fecal bile acid per day
Delta (micromoles fecal bile acid per day) (fecal bile acid (FBA); dose .016 mg/kg/day): 29.6 micromoles fecal bile acid per day
Delta (micromoles fecal bile acid per day) (fecal bile acid (FBA); dose .08 mg/kg/day): 38.1 micromoles fecal bile acid per day
Delta (micromoles fecal bile acid per day) (fecal bile acid (FBA); dose .4 mg/kg/day): 45 micromoles fecal bile acid per day
IC50 (human IBAT; [6]): 0.011 µM
melting point: 80 to 85 °C

Structure (SMILES): CCCCC1(CCCC)CS(=O)(=O)c2ccc(N(C)C)cc2[C@@H](c2ccc(OCCCCCOc3cc(C(=O)O)nc(C(=O)O)c3)cc2)[C@H]1O [Example 1421]
Delta (micromoles fecal bile acid per day) (fecal bile acid (FBA); dose 2 mg/kg/day): 57.8 micromoles fecal bile acid per day
Delta (micromoles fecal bile acid per day) (fecal bile acid (FBA); dose .016 mg/kg/day): 4.7 micromoles fecal bile acid per day
Delta (micromoles fecal bile acid per day) (fecal bile acid (FBA); dose .08 mg/kg/day): 25.3 micromoles fecal bile acid per day
Delta (micromoles fecal bile acid per day) (fecal bile acid (FBA); dose .4 mg/kg/day): 27.7 micromoles fecal bile acid per day
IC50 (human IBAT; [6]): 0.004 µM
melting point: 143 °C

Structure (SMILES): CCCCC1(CCCC)CS(=O)(=O)c2ccc(N(C)C)cc2[C@@H](c2ccc(OCc3cccc(CCC(=O)O)n3)cc2)[C@H]1O [Example 1430, (4R-cis)-6-[[4-[3,3-Dibutyl-7-(dimethylamino)-2,3,4,5-tetrahydro-4-hydroxy-1,1-dioxido-1-benzothiepin-5-yl]phenoxy]methyl]-2-pyridinepropanoic acid]
Delta (micromoles fecal bile acid per day) (fecal bile acid (FBA); dose 2 mg/kg/day): 51.2 micromoles fecal bile acid per day
Delta (micromoles fecal bile acid per day) (fecal bile acid (FBA); dose .016 mg/kg/day): −5.6 micromoles fecal bile acid per day
Delta (micromoles fecal bile acid per day) (fecal bile acid (FBA); dose .08 mg/kg/day): 20.7 micromoles fecal bile acid per day
Delta (micromoles fecal bile acid per day) (fecal bile acid (FBA); dose .4 mg/kg/day): 50.4 micromoles fecal bile acid per day
IC50 (human IBAT; [6]): 0.003 µM
melting point: 105 to 107 °C

Structure (SMILES): CCCCC1(CCCC)CS(=O)(=O)c2ccc(N(C)C)cc2[C@@H](c2ccc(OCCOCCC(C(=O)O)C(=O)O)cc2)[C@H]1O [Example 1432, (4S-cis)-[2-[2-[4-[3,3-Dibutyl-7-(dimethylamino)-2,3,4,5-tetrahydro-4-hydroxy-1,1-dioxido-1-benzothiepin-5-yl]phenoxy]ethoxy]ethyl]propanedioic acid]
Delta (micromoles fecal bile acid per day) (fecal bile acid (FBA); dose 5 mg/kg/day): 36.2 micromoles fecal bile acid per day
Delta (micromoles fecal bile acid per day) (fecal bile acid (FBA); dose .04 mg/kg/day): 2.4 micromoles fecal bile acid per day
Delta (micromoles fecal bile acid per day) (fecal bile acid (FBA); dose .2 mg/kg/day): 9.7 micromoles fecal bile acid per day
IC50 (human IBAT; [6]): 0.026 µM
melting point: 119.5 °C

The next lines start with results.

IC50 (human IBAT; [3]): 40 µM
Structure (SMILES): CCCC[C@]1(CC)CS(=O)(=O)c2ccccc2[C@@H](c2ccccc2)C1=O (relative stereo) [Example 5b, trans-3-Butyl-3-ethyl-5-phenyl-2,3-dihydro-benzothiepin-(5H) 4-one-1,1-dioxide]
inhibition at 100 µM (H14 cells): 0%
activity at 500 µM [1, 4]: 72.9 ± 5.4%

IC50 (human IBAT; [3]): 5 µM
Structure (SMILES): CCCC[C@@]1(CC)C[C@@H](c2ccccc2)c2ccccc2S(=O)(=O)C1 (relative stereo) [Example 9a, cis-3-Butyl-3-ethyl-5-phenyl-2,3,4,5-tetrahydrobenzothiepine-1,1-dioxide]
inhibition at 25 µM (H14 cells): 0%
activity at 100 µM ([1]; Rattus norvegicus): 53.7%

IC50 (human IBAT; [3]): 2 µM
Structure (SMILES): CCCC[C@]1(CC)CS(=O)(=O)c2ccccc2[C@H](c2ccccc2)[C@@H]1O [Example 6c, (3α,4α,5α) 3-Butyl-3-ethyl-4-hydroxy-5-phenyl-2,3,4,5-tetrahydrobenzothiepine-1,1-dioxide]
inhibition at 100 µM (H14 cells): 58.5%
activity at 400 µM ([1]; Rattus norvegicus, 0.4 mM, read-out: % of Control Transport of TC in Rat Ileum): 68.8%

IC50 (human IBAT; [3]): 0.6 µM
IC50 (human IBAT; [5]): 0.6 µM
EC50 [1]: 31000 nM
IC50 [2]: 1500 nM
Structure (SMILES): CCCC[C@]1(CC)CS(=O)(=O)c2ccccc2[C@@H](c2ccccc2)[C@H]1O [Example 6d, (3α,4β,5β) 3-Butyl-3-ethyl-4-hydroxy-5-phenyl-2,3,4,5-tetrahydrobenzothiepine-1,1-dioxide]
inhibition at 100 µM (H14 cells): 77.7%
activity at 150 µM ([1]; Rattus norvegicus, 0.15 mM, read-out: % of Control Transport of TC in Rat Ileum): 30.2%
activity at 500 µM [1, 4]: 16.1%
